These are literature values, as cited in patent US20220193028A1, “THERAPEUTIC COMBINATIONS, LIQUID PHARMACEUTICAL COMPOSITIONS, KITS FOR THEIR PREPARATION, AND METHODS OF THEIR USE” (priority 2019, published 2022).

In the data set the target is AMPA receptor. Conditions: non-competitive selective allosteric modulator of the AMPA receptor; read-out: IC50 (block of glutamate induced currents).

For the compound `N#Cc1ccccc1-c1cc(-c2ccccn2)cn(-c2ccccc2)c1=O` [perampanel], the IC50 was about 560 nM.
